In patent publication US10954201B2, “Two-electron donating phenothiazines and use thereof” (University of Kentucky Research Foundation, priority 2016, dated 2021):
≈ marks a conversion by molar mass, not a printed value. Like-named read-outs stand apart in the source and are kept apart here.

Assays:
[1] = Solubility in electrolyte formulations; format: physicochemical; conditions: for solubility compared to the N-ethyl derivative: while retaining stable redox chemistry
Text: Additionally, in some embodiments, the N-substituted phenothiazine compounds described herein provide increased solubility in electrolyte formulations as compared to existing compounds, such as 2,5-di-tert-butyl-1,4-bis(2-methoxyethoxy)benzene (DBBB). In one embodiment, the glyme substituents provide increased solubility in electrolyte formulations as compared to other derivatives. […] In another embodiment, this solubility in organic solvents permits the use of renewable earth-abundant elements.
In some embodiments, the N-substituted phenothiazine compounds described herein provide a multi-electron donor including high stability and solubility in catholyte formulations. In another embodiment, the catholyte material provides a multi-electron donor that retains high chemical stability when charged. […] For example, when formulated at its solubility limit, diglyme-dimethoxyphenothiazine may provide approximately 5 times the volumetric energy of DBBB, which has an energy density of 10 Ah/L when formulated as a catholyte, and is limited by its solubility (0.4M) and redox chemistry, acting as a single electron donor.

[2] = Cyclic voltammetry, 10 mM analyte in 0.5M LiPF6 in PC (FIG. 1, Table 1); format: physicochemical; conditions: scan rate 100 mV/s
Procedure: FIG. 1 is a graph showing cyclic voltammograms of DMeOEPT, DMeOMEPT, and DMeOMEEPT, performed with 10 mM analyte in 0.5M LiPF6 in PC at a scan rate of 100 mV/s.

[3] = Oxidation potentials vs. ferrocenium/ferrocene in 0.5M TEATFSI/acetonitrile; format: physicochemical
Text: With regard to Compound IV, oxidation potentials are 0.035 V and 0.625 V vs. ferrocenium/ferrocene in 0.5M TEATFSI/acetonitrile.

[4] = DBBB formulated as a catholyte; cited from earlier work

Compound	solubility [1]	melting point	1st Eox vs. Li (half-wave first oxidation potential) [2]	2nd Eox vs. Li (half-wave second oxidation potential) [2]	oxidation potential (first) vs. ferrocenium/ferrocene [3]	oxidation potential (second) vs. ferrocenium/ferrocene [3]	solubility compared to the N-ethyl derivative [1]	solubility [4]
CCN1c2ccc(OCCOCCOC)cc2Sc2cc(OCCOCCOC)ccc21 [Compound IV]	–	–	–	–	0.035 V	0.625 V	–	–
COCCOc1cc(C(C)(C)C)c(OCCOC)cc1C(C)(C)C [DBBB, 2,5-di-tert-butyl-1,4-bis(2-methoxyethoxy)benzene]	–	–	–	–	–	–	–	400 mM (≈ 135 mg/mL)

Continued, in another order:

solubility [1]	melting point	1st Eox vs. Li (half-wave first oxidation potential) [2]	2nd Eox vs. Li (half-wave second oxidation potential) [2]	oxidation potential (first) vs. ferrocenium/ferrocene [3]	oxidation potential (second) vs. ferrocenium/ferrocene [3]	solubility compared to the N-ethyl derivative [1]	Compound	solubility [4]
about 100 mM	115 to 116 °C	3.38 V	3.94 V	–	–	–	CCN1c2ccc(OC)cc2Sc2cc(OC)ccc21 [Compound I, 3,7-dimethoxy-N-ethyl-phenothiazine]	–
–	108 to 110 °C	3.42 V	3.96 V	–	–	higher solubility	COCCN1c2ccc(OC)cc2Sc2cc(OC)ccc21 [II, 3,7-dimethoxy-N-methoxyethyl-phenothiazine]	–
–	–	3.41 V	3.98 V	–	–	higher solubility	COCCOCCN1c2ccc(OC)cc2Sc2cc(OC)ccc21 [III, 3,7-dimethoxy-N-((2-methoxy)ethoxy)ethyl-phenothiazine]	–
